US20140275105A1, “CRYSTAL OF ANDROGEN RECEPTOR AN[…]” (Astellas Pharma Inc., priority 2011, published 2014)
Read-outs that look alike come from different tables or passages of the source.

Experiments:
Assay type in all cases: physicochemical
[1] = Solubility in JP1, JP2, JP2+TC, FaSSIF, FeSSIF (shaking 10 minutes at room temperature, HPLC); conditions: 10 minutes shaking
Protocol: 0.5 mg to 1 mg of a sample was weighed in 10 mL of a centrifuge tube, and respective solutions (see below) were added thereto such that the amount thereof became approximately 150 μg/mL. In order to disperse the sample uniformly, the solution was sonicated in a water bath for a short period of time, followed by shaking at room temperature for 10 minutes using a shaker SA31 (manufactured by Yamato Scientific Co., Ltd.). The solution after being shaken was filtered with a filter, and the concentration of the compound in the filtrate was determined by HPLC. The following solutions were used.
JP1 (first solution of Japanese Pharmacopoeia Disintegration Test): 2.0 g of sodium chloride was dissolved in 7.0 mL of hydrochloric acid and water and the amount thereof was set to 1000 mL (pH: approximately 1.2).
JP2 (second solution of Japanese Pharmacopoeia Disintegration Test): 118 mL of 0.2 mol/L sodium hydroxide test solution and water were added to 250 mL of 0.2 mol/L potassium dihydrogen phosphate test solution and the amount thereof was set to 1000 mL (pH: approximately 6.8).
JP2+bile acid (JP2+TC): sodium taurocholic acid was added to the second solution of Japanese Pharmacopoeia Disintegration Test such that the amount thereof became 15 mmol/L.
FaSSIF (simulated intestinal fluid (fasted state)): 3 mmol/L of sodium taurochloric acid, 0.75 mmol/L of lecithin, 3.9 g of potassium dihydrogen phosphate, and 7.7 g of potassium chloride were added to 1 L of water and the pH thereof was adjusted to approximately 6.5 using sodium hydroxide.
FeSSIF (simulated intestinal fluid (fed state)): 15 mmol/L of sodium taurochloric acid, 3.75 mmol/L of lecithin, 8.65 g of acetic acid, and 15.2 g of potassium chloride were added to 1 L of water and the pH thereof was adjusted to approximately 5.0 using sodium hydroxide.
Device: LC1100 (manufactured by Agilent Technologies)
Mobile phase: A: 0.01 mol/L aqueous ammonium acetate solution, B: 0.01 mol/L ammonium acetate methanol solution
Column: Developsil Combi-RP-5.5 μm (2.1 mm×50 mm)
Column temperature: 40° C.
Detection wavelength: 254 nm

[2] = Physical solid stability (powder X-ray diffraction and DSC); conditions: 70° C., plugged up, uncontrolled humidity, two weeks
Protocol: With respect to solid state stability of the crystals of the present invention, physical/chemical stability under temperature and humidity conditions, and chemical stability in a light irradiation state were evaluated. The physical stability was evaluated by the powder X-ray diffraction and the differential scanning calorimetry analysis (DSC) (under the above-described measurement conditions). The chemical stability was evaluated by HPLC (related substance test and optical isomer separating test), and represented by the ratio (%) of generated impurities.
(Solid State Stability, Temperature)
In an Incubator IC-450A (manufactured by AS ONE Corporation) set as 70° C., a sample was plugged up and stored under the uncontrolled humidity environment for two weeks.
(Solid State Stability, Temperature/Humidity)

[3] = Hygroscopicity test (VTI SGA-100); conditions: 25° C., 5% to 95% relative humidity
Protocol: Measurement of the hygroscopicity of the crystals of the present invention was performed by using VTI SGA-100 under the conditions of temperature: 25° C., measurement range: 5% to 95% relative humidity, and measurement interval: 5% relative humidity.

[4] = FaSSIF (simulated intestinal fluid, pH 6.5), FaSSIF (fasted state), pH approximately 6.5, room temperature, read-out: Solubility FaSSIF
[5] = FeSSIF (simulated intestinal fluid, pH 5), FeSSIF (fed state), pH approximately 5.0, room temperature, read-out: Solubility FeSSIF
[6] = JP2+TC (JP2 + bile acid), JP2 + 15 mmol/L sodium taurocholic acid, room temperature, read-out: Solubility JP2 + TC
[7] = pH 1.2, JP1, pH approximately 1.2, room temperature, read-out: Solubility JP1
[8] = pH 6.8, JP2, pH approximately 6.8, room temperature, read-out: Solubility JP2

Row | Structure (SMILES) | solubility at 10 minutes [1, 4] | solubility at 10 minutes [1, 5] | solubility at 10 minutes [1, 6] | solubility at 10 minutes [1, 7] | solubility at 10 minutes [1, 8] | Physical solid stability, temperature [2] | Hygroscopicity [3]
1 | Br.C[C@@H]1CN(c2ccc(C#N)c(Cl)c2)[C@@H](C)CN1C(=O)Nc1cnc(C2CC2)nc1 [(2R,5S)-4-(3-chloro-4-cyanophenyl)-N-(2-cyclopropylpyrimidin-5-yl)-2,5-dimethylpiperazine-1-carboxamide hydrobromide] | 41 µg/mL | 94.9 µg/mL | > 80.6 µg/mL | 12.3 µg/mL | 19.8 µg/mL | Stable to the temperature | 0.1% or less
2 | CS(=O)(=O)O.C[C@@H]1CN(c2ccc(C#N)c(Cl)c2)[C@@H](C)CN1C(=O)Nc1cnc(C2CC2)nc1 [(2R,5S)-4-(3-chloro-4-cyanophenyl)-N-(2-cyclopropylpyrimidin-5-yl)-2,5-dimethylpiperazine-1-carboxamide methanesulfonate] | 47.2 µg/mL | > 100 µg/mL | > 100 µg/mL | > 100 µg/mL | 20.6 µg/mL | – | ~5%
3 | C[C@@H]1CN(c2ccc(C#N)c(Cl)c2)[C@@H](C)CN1C(=O)Nc1cnc(C2CC2)nc1.O [(2R,5S)-4-(3-chloro-4-cyanophenyl)-N-(2-cyclopropylpyrimidin-5-yl)-2,5-dimethylpiperazine-1-carboxamide monohydrate] | 4.4 µg/mL | 17.7 µg/mL | 8.8 µg/mL | 21.8 µg/mL | 1.6 µg/mL | Stable to the temperature | 0.1% or less
4 | C[C@@H]1CN(c2ccc(C#N)c(Cl)c2)[C@@H](C)CN1C(=O)Nc1cnc(C2CC2)nc1.Cl [(2R,5S)-4-(3-chloro-4-cyanophenyl)-N-(2-cyclopropylpyrimidin-5-yl)-2,5-dimethylpiperazine-1-carboxamide hydrochloride] | 39.4 µg/mL | > 100 µg/mL | 92.8 µg/mL | 9.7 µg/mL | 10.1 µg/mL | Stable to the temperature | ~1.4%
